The results in this text go back to patent US20250017207A1 (priority 2021, published 2025).

What all share (format): cell-based
The test system of one experiment is Fusarium proliferatum. The experiment can be described thus: Petri plate test, inhibition of mycelial growth (NY/T 1156.2-2006). Conditions: 72 h, mycelial growth on PDA plates, 25° C., three days in darkness. An excerpt: Certain mixture compositions according to the present invention may show a synergistic effect. This occurs whenever the action of an active ingredient combination is greater than the sum of the actions of the individual components. The combined toxicity of two agents can be evaluated by the Co-Toxicity Coefficient (CTC) according to the Sun-YP method (Yun-Pei, Sun. “Toxicity Index-An Improved Method of Comparing the Relative Toxicity of Insecticides.” Journal of Economic Entomology 1(1950):45-53.). A CTC value of less than 80 indicates an antagonistic effect, a CTC value of 80-120 indicates an additive effect, and a CTC value of greater than or equal to 120 indicates a synergistic effect.
Component A represents standard Al, and component B represents the component to be mixed with the standard Al. • ATI (Measured toxicity index of a mixture)=(Standard Al's EC50/Mixture's EC50)*100 • TTI (Theoretical toxicity index of a mixture)=(TIA*PA+TIB*PB)*100 • TIA (Toxicity index of component A)=the EC50 of component A/the EC50 of component A • PA: Percentage of component A in the mixture • TIB (Toxicity index of component B)=the EC50 of component A/the EC50 of component B • PB: Percentage of component B in the mixture […]

Another experiment relates to Gibberella fujikuroi. Put plainly: microbe, parasite or virus in culture. Conditions: Fusarium fujikuroi, 72 h, read-out: EC50 Value.
The subject of another experiment is Fusarium graminearum. Put plainly: microbe, parasite or virus in culture. The conditions noted are these: 72 h, read-out: EC50 Value.

SMILES strings stand for the structures. In brackets after ≈: the same amount, converted by molar mass.

Consider `CCOC(=O)/C(C#N)=C(\N)c1ccccc1` [PHM, (Z)-ethyl 2-cyano-3-amino-3-phenylacrylate], for which the values for the EC50 with Fusarium proliferatum, in the experiment on Gibberella fujikuroi and in the experiment with Fusarium graminearum were 3.08 µg/mL, 0.197 µg/mL (≈ 0.91 µM) and 0.0307 µg/mL (≈ 0.142 µM), respectively.
The like results for `O=C(N[C@@H]1CC[C@@H]1c1ccc(Cl)cc1Cl)c1cccnc1C(F)(F)F` [cylcobutrifluram, N-[(1,2 cis)-2-(2,4-dichlorophenyl)cyclobutyl]-2-(trifluoromethyl)pyridine-3-carboxamide] were, in that order, 0.882 µg/mL, 0.75 µg/mL (≈ 1.93 µM) and 0.0222 µg/mL (≈ 0.057 µM).
